This is an account of results in article PMC6436930 (Molecular Cell, 2019).

SMILES strings stand for the structures.

In the experiment the target is MbcT (Rv1989c) (Mycobacterium tuberculosis, UniProt P9WLP9).
MbcT (Rv1989c), sequence (P9WLP9 whole entry): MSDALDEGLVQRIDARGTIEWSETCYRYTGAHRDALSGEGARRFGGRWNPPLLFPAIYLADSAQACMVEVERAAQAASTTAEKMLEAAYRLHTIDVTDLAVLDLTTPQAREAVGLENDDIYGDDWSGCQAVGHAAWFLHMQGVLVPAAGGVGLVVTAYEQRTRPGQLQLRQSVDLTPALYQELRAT

As for `NC(=O)c1ccc[n+]([C@@H]2O[C@H](COP(=O)(O)OP(=O)(O)OC[C@H]3O[C@@H](n4cnc5c(N)ncnc54)[C@H](O)[C@@H]3O)[C@@H](O)[C@H]2O)c1` [NAD^+], the Km – broadly, the concentration of substrate that gives half-maximal velocity – amounted to 110 ± 8 µM.
